# Measurements taken from patent US20260271925A1, “DYSREGULATION OF PLANKTONIC BACTERIAL METABOLISM” (Lixa Limited, priority 2023, published 2026).
# How the values were obtained:
# [1] = cited from earlier work
# S. aureus MRSA 510 = experiment: Minimum inhibitory concentration of metal salts by broth microdilution in Trypticase Soya broth (Example 4); format: cell-based, Staphylococcus aureus
# Method: (§1) Bacterial strains were maintained as suspensions in 20% (v/v) glycerol/Brain-Heart Infusion at −80° C. For use, a loop-full of ice was scraped from the stock and streaked for single colonies on Trypticase Soya agar containing 1.8% agar and incubated overnight at 37° C.
# A standard inoculum was prepared from broth culture. One to three colonies from an overnight agar culture plate were transferred to 5 ml of broth media and incubated at 37° C. with shaking (200 rpm) until turbidity was greater than that of a 0.5 McFarland Standard (overnight). All assays were performed in Trypticase Soya broth.
# (§2) The broth culture was diluted in broth to a turbidity equal to a 0.5 McFarland Standard using a spectrophotometer at a wavelength of 620 nm. The 0.5 McFarland Standard was further diluted 1:100 in broth to create the standard inoculum. 50 μl of this standard inoculum was dispensed into every well in the microtitre tray, except the negative controls, where 50 μl of broth was dispensed instead.
# (§3) Next, a working concentration at two times the highest target concentration for every salt (in aqueous solution) was created in broth from stock solutions. 100 μl of this working concentration was pipetted into the first well, and 50 μl of broth media into all other wells. 50 μl of the first well was pipetted out and serially diluted across all wells in the row until the final concentration in the range achieved. 50 μl from the final well was removed and discarded. This produced a concentration range where each well was double the target concentration. All agents were performed in duplicate.
# (§4) 96 well trays were incubated at 37° C. for 18±2 hours.
# [2] = tested on: P. aeruginosa strain WACC91; experiment: Resazurin reduction of planktonic cultures in M63 (glucose), D- versus L-Lactic acid (Example 3); format: cell-based, Pseudomonas aeruginosa
# Method: . Viable cells reduce the blue resazurin dye to the pink, fluorescent resorufin form. Following incubation fluorescence was quantified by excitation wavelength of 540 nm and an emission wavelength of 590 nm using Enspire microplate reader.
# P. aeruginosa strain WACC91 was maintained as a suspension in 20% (v/v) glycerol/Brain-Heart Infusion at −80° C. For use, a loop-full of ice was scraped from the stock and streaked for single colonies on LB media containing 1.8% agar and incubated overnight at 37° C. Isolated colonies were looped into 5 mL of LB broth and incubated at 37° C. with shaking until turbidity was greater than that of a 1.0 McFarland Standard (3-4 h).
# The broth culture was diluted in M63 minimal media containing 0.2% (w/v) glucose as the sole carbon source to a turbidity equal to a 1.0 McFarland standard using a spectrophotometer at a wavelength of 595 nm. This culture was then diluted 1:100 in M63 (glucose) and 100 μL together with an additional 50 μL was transferred to each well of a 96 well microtitre tray and incubated overnight at 37° C., 5% CO2. D-Lactic acid, L-Lactic acid, or vehicle only (sterile H2O) was then applied by adding 50 μL of appropriate stock solutions diluted in M63 (glucose) and incubating for a further 24 hours at 37° C., 5% CO2. Culture metabolic activity was then determined using resazurin reduction as described above in Example 1.
# S. aureus 29213 (MSSA) = experiment: Minimum inhibitory concentration by broth microdilution (Example 2); format: cell-based, Staphylococcus aureus
# Method: (§5) Bacterial strains were maintained as suspensions in 20% (v/v) glycerol/Brain-Heart Infusion at −80° C.
# A standard inoculum was prepared from broth culture.
# as §2
# as §3, with “antimicrobial” for “salt (in aqueous solution)”
# as §4
# S. pneumoniae D39 [3] = experiment: as above; format: cell-based, Streptococcus pneumoniae
# Method: as §1, with “rich media” for “Trypticase Soya agar”, “agar (for Pseudomonas aeruginosa or Klebsiella pneumoniae, Luria-Bertani medium; for Staphylococcus aureus or Streptococcus pneumoniae, Trypticase Soy agar)” for “agar”
# A standard inoculum was prepared from broth culture. 1 to 3 colonies from an overnight agar culture plate were transferred to 5 ml of broth media and incubated at 37° C. with shaking (200 rpm) until turbidity was greater than that of a 0.5 McFarland Standard (overnight). The following broth media were used: Cation-adjusted Mueller-Hinton broth (caMHB—all strains); Roswell Park Memorial Institute medium (RPMI 1640, phenol red-free—S. aureus); Trypticase Soya Broth (TSB—S. aureus, S. pneumoniae); Todd Hewitt Broth (THB—S. pneumoniae), M63 minimal medium, supplemented with 0.2% glucose (M63—K. pneumoniae).
# as §2
# as §3, with “antimicrobial” for “salt (in aqueous solution)”
# as §4
# S. pneumoniae D39 [4] = experiment: Resazurin reduction for the evaluation of metabolic activity (Example 2); format: cell-based, Streptococcus pneumoniae; conditions: plus 10 mM D-Lactic acid
# Method: as §5
# Aerobic respiration was measured in the presence or absence of D-Lactic acid and the presence or absence of companion antibiotics either following incubation and visual recording of the MIC, or in a separate study. For evaluation after completion of MIC determination, the entire volume of the MIC well (100 μl) was mixed by pipetting up and down, then transferred to the equivalent well of a fluorescence-absorbance suitable 96-well plate. Alternatively, cultures were pipetted together as above and incubated overnight at 37° C. in the absence of any antimicrobial compounds. Culture supernatants were removed, adherent cells washed and then treated by the addition of 100 μL of fresh broth, 50 μL of broth containing 4×the desired concentration of antibiotic and 50 μL containing 4×the desired concentration of D-Lactic acid or vehicle only controls, followed by incubation at 37° C. for a further 18±2 hours. After incubation regimes were completed for both procedures, resazurin reduction was evaluated by adding 10 μl of a 0.02% resazurin solution to every well, and incubating the plates with gentle shaking (40 rpm) for a further 90 minutes at 37° C. 96-well plates and resazurin were protected from light as much as possible.
# Following incubation, the 96-well trays were read on a fluorescence-absorbance spectrophotometer, using an excitation frequency of 565 nm and emission frequency of 590 nm. The value for each well was blanked by subtracting the value of the negative control. Every value was then converted to a ratio with respect to the mean value of the positive controls.
# [5] = antibiotic + 1 mM D-Lactic acid
# [6] = antibiotic + 10 mM D-Lactic acid
smiles,measurement,setting,value
O=C(O)C(O)c1ccccc1 (centres unmarked) [2-hydroxy-2-phenylacetic acid],Water solubility*,[1],1140 mM
CCC(O)C(=O)O (centres unmarked) [2-hydroxybutanoic acid],Water solubility*,[1],1930 mM
CCCCC(O)C(=O)O (centres unmarked) [2-hydroxyhexanoic acid],Water solubility*,[1],270 mM
CCCC(O)C(=O)O (centres unmarked) [2-hydroxypentanoic acid],Water solubility*,[1],1640 mM
[Cu+2] [Cu^2+],MIC D-Lactate salt,S. aureus MRSA 510; metal ion as D-Lactate salt,4 mM
same,MIC (NO3)2 salt,S. aureus MRSA 510; metal ion as nitrate salt,8 mM
C[C@H](O)C(=O)O [L-Lactic acid],breakpoint of metabolic rate (concentration range in which the change of activity is clearest),[2]; Resazurin reduction in comparison to vehicle-only treatment,No comparable breakpoint is observed
same,change in metabolic activity,"[2]; resorufin fluorescence, same concentrations as D-Lactic acid",No change in metabolic activity
CC1(C)S[C@@H]2[C@H](NC(=O)[C@H](N)c3ccc(O)cc3)C(=O)N2[C@H]1C(=O)O [amoxicillin],MIC + 1 mM D-Lactic acid,S. aureus 29213 (MSSA); [5],<1.0
same,MIC + 10 mM D-Lactic acid,S. aureus 29213 (MSSA); [6],2.0
same,MIC + 1 mM D-Lactic acid,S. pneumoniae D39 [3]; [5],0.25
same,MIC + 10 mM D-Lactic acid,S. pneumoniae D39 [3]; [6],0.25
same,MIC,S. pneumoniae D39 [3]; antibiotic alone,0.5
same,"Relative metabolic activity, antibiotic plus D-Lactic acid versus antibiotic only",S. pneumoniae D39 [4],enhances metabolic activity suppression
